Common to all, as to type: functional
Assay [1] concerns Bacillus subtilis. The assay can be described thus: Antimicrobial activity against Bacillus subtilis MTCC 4905 at 60 ug after 24 hr by streak plate method. The settings on record: MTCC 4905, 24 h, read-out: IZ.
In assay [2] the test system is Bacillus subtilis. The assay can be described thus: Antimicrobial activity against Bacillus subtilis MTCC 4905 at 40 ug after 24 hr by streak plate method. Conditions: MTCC 4905, 24 h, read-out: IZ.
The subject of assay [3] is Bacillus subtilis. The assay can be described thus: Antimicrobial activity against Bacillus subtilis MTCC 4905 at 20 ug after 24 hr by streak plate method. The settings on record: MTCC 4905, 24 h, read-out: IZ.
Assay [4] deals with Salmonella typhi. In words: Antimicrobial activity against Salmonella enterica subsp. enterica serovar Typhi MTCC 3917 at 60 ug after 24 hr by streak plate method. Conditions: MTCC 3917, 24 h, read-out: IZ.
In assay [5] the test system is Salmonella typhi. The assay can be described thus: Antimicrobial activity against Salmonella enterica subsp. enterica serovar Typhi MTCC 3917 at 40 ug after 24 hr by streak plate method. Conditions: MTCC 3917, 24 h, read-out: IZ.
Assay [6] deals with Salmonella typhi. The assay can be described thus: Antimicrobial activity against Salmonella enterica subsp. enterica serovar Typhi MTCC 3917 at 20 ug after 24 hr by streak plate method. Conditions: MTCC 3917, 24 h, read-out: IZ.
Assay [7] deals with Escherichia coli. The assay can be described thus: Antimicrobial activity against Escherichia coli MTCC 3261 at 60 ug after 24 hr by streak plate method. Conditions: MTCC 3261, 24 h, read-out: IZ.
Assay [8] relates to Escherichia coli. The assay can be described thus: Antimicrobial activity against Escherichia coli MTCC 3261 at 40 ug after 24 hr by streak plate method. The settings on record: MTCC 3261, 24 h, read-out: IZ.
Assay [9] deals with Escherichia coli. The assay can be described thus: Antimicrobial activity against Escherichia coli MTCC 3261 at 20 ug after 24 hr by streak plate method. The settings on record: MTCC 3261, 24 h, read-out: IZ.
Assay [10] concerns Radical scavenging activity. The assay can be described thus: Antioxidant activity assessed as DPPH radical scavenging activity. For orientation: Loss of DPPH colour is used to gauge radical scavenging.
Assay [11] deals with Radical scavenging activity. The assay can be described thus: Antioxidant activity assessed as DPPH radical scavenging activity at 125 ug.
The test system of assay [12] is Radical scavenging activity. In words: Antioxidant activity assessed as DPPH radical scavenging activity at 100 ug.
The test system of assay [13] is Radical scavenging activity. The assay can be described thus: Antioxidant activity assessed as DPPH radical scavenging activity at 50 ug.
Assay [14] has as its system Radical scavenging activity. The assay can be described thus: Antioxidant activity assessed as DPPH radical scavenging activity at 75 ug.
Assay [15] concerns Radical scavenging activity. In words: Antioxidant activity assessed as DPPH radical scavenging activity at 25 ug.
Assay [16] in a line: Antioxidant activity assessed as inhibition of linoleic acid peroxidation by FTC method.
Assay [17] is described as follows: Antioxidant activity assessed as inhibition of linoleic acid peroxidation at 100 ug by FTC method.
Assay [18] in a line: Antioxidant activity assessed as inhibition of linoleic acid peroxidation at 125 ug by FTC method.
Assay [19] in a line: Antioxidant activity assessed as inhibition of linoleic acid peroxidation at 75 ug by FTC method.
Assay [20] is described as follows: Antioxidant activity assessed as inhibition of linoleic acid peroxidation at 50 ug by FTC method.
The nature of assay [21]: Antioxidant activity assessed as inhibition of linoleic acid peroxidation at 25 ug by FTC method.
For assay [22], the system named is Aspergillus fumigatus. The assay can be described thus: Antimicrobial activity against Aspergillus fumigatus MTCC 6594 at 60 ug after 48 hr by streak plate method. Conditions: MTCC 6594, 48 h, read-out: IZ.
Assay [23] has as its system Aspergillus fumigatus. In words: Antimicrobial activity against Aspergillus fumigatus MTCC 6594 at 40 ug after 48 hr by streak plate method. The settings on record: MTCC 6594, 48 h, read-out: IZ.
Assay [24] has as its system Aspergillus oryzae. The assay can be described thus: Antimicrobial activity against Aspergillus oryzae MTCC 3782 at 60 ug after 48 hr by streak plate method. The settings on record: MTCC 3782, 48 h, read-out: IZ.
Assay [25] deals with Aspergillus oryzae. The assay can be described thus: Antimicrobial activity against Aspergillus oryzae MTCC 3782 at 40 ug after 48 hr by streak plate method. Conditions: MTCC 3782, 48 h, read-out: IZ.
For assay [26], the system named is Aspergillus fumigatus. The assay can be described thus: Antimicrobial activity against Aspergillus fumigatus MTCC 6594 at 20 ug after 48 hr by streak plate method. The settings on record: MTCC 6594, 48 h, read-out: IZ.
Assay [27] concerns Aspergillus oryzae. The assay can be described thus: Antimicrobial activity against Aspergillus oryzae MTCC 3782 at 20 ug after 48 hr by streak plate method. Conditions: MTCC 3782, 48 h, read-out: IZ.

Each structure is given as a SMILES string.

Our source for the zone of inhibition, Activity and inhibition values is ChEMBL document CHEMBL3044727, “Syntheses, spectral, crystallographic, antimicrobial, and antioxidant studies of few Mannich bases” (2012).

For the compound `CC1(C)S[C@@H]2[C@H](NC(=O)Cc3ccccc3)C(=O)N2[C@H]1C(=O)O` [PENICILLIN G], the zone of inhibition at 60 µg/disc with Bacillus subtilis [1] came to 26 mm; in the assay with Salmonella typhi [4], 24 mm; in the assay with Escherichia coli [7], 31 mm. Moreover, the zone of inhibition at 40 µg/disc in the assay with Bacillus subtilis [2] turned out to be 26 mm; in the assay with Salmonella typhi [5], 24 mm; in the assay with Escherichia coli [8], 30 mm. The values for the zone of inhibition at 20 µg/disc with Bacillus subtilis [3], with Salmonella typhi [6] and in the assay with Escherichia coli [9] were 25 mm, 20 mm and 24 mm, respectively.

In general, inhibition refers to the relative decrease from the control value, in per cent. Consider `O=C(NC(c1ccccc1)c1cc2ccccc2cc1O)NC(c1ccccc1)c1cc2ccccc2cc1O` (stereo not drawn), for which the Activity result is “Dose-dependent effect” in assay [10]; 40% in [11]; 37% in [12]; 27% in [13]; 35% in [14]; 28% in [15]. Moreover, the inhibition result is “Dose-dependent effect” in assay [16]; 19% in assay [17]; 24% in assay [18]; 18.3% in assay [19]; 17% in [20]; 17% in assay [21]. Also, the zone of inhibition at 60 µg/disc with Aspergillus fumigatus [22] was determined as 11 mm; in the assay on Aspergillus oryzae [24], 12 mm; in the assay on Bacillus subtilis [1] it was 3 mm; in the assay on Salmonella typhi [4], 23 mm; in the assay on Escherichia coli [7], 9 mm. Further, the zone of inhibition at 40 µg/disc came out at 6 mm in the assay with Aspergillus fumigatus [23]; 8 mm with Aspergillus oryzae [25]; 4 mm in the assay with Bacillus subtilis [2]; 21 mm in the assay with Salmonella typhi [5]; 8 mm in the assay with Escherichia coli [8]. In addition, the results for the zone of inhibition at 20 µg/disc in the assay with Bacillus subtilis [3] and with Salmonella typhi [6] were 4 mm and 20 mm, respectively.

With `CN[C@@H]1[C@H](O[C@H]2[C@H](O[C@H]3[C@H](O)[C@@H](O)[C@H](N=C(N)N)[C@@H](O)[C@@H]3N=C(N)N)O[C@@H](C)[C@]2(O)C=O)O[C@@H](CO)[C@H](O)[C@H]1O` [STREPTOMYCIN], the zone of inhibition at 60 µg/disc amounted to 41 mm with Bacillus subtilis [1], 40 mm in the assay on Salmonella typhi [4] and 45 mm in the assay on Escherichia coli [7]. For the same compound, the zone of inhibition at 40 µg/disc with Bacillus subtilis [2] came out at 33 mm; in the assay on Salmonella typhi [5] it was 40 mm; in the assay on Escherichia coli [8], 39 mm. For the same compound, the zone of inhibition at 20 µg/disc in the assay on Bacillus subtilis [3] amounted to 30 mm; in the assay on Salmonella typhi [6] it was 36 mm; with Escherichia coli [9], 31 mm.

With `C[C@@H]1[C@H](O)[C@@H](C)/C=C/C=C/C=C/C=C/C=C/C=C/C=C/[C@H](O[C@@H]2O[C@H](C)[C@@H](O)[C@H](N)[C@@H]2O)C[C@@H]2O[C@](O)(C[C@@H](O)C[C@@H](O)[C@H](O)CC[C@@H](O)C[C@@H](O)CC(=O)O[C@H]1C)C[C@H](O)[C@H]2C(=O)O` [AMPHOTERICIN B], the zone of inhibition at 60 µg/disc in the assay on Aspergillus fumigatus [22] amounted to 30 mm; with Aspergillus oryzae [24], 16 mm. The zone of inhibition at 40 µg/disc turned out to be 24 mm with Aspergillus fumigatus [23] and 12 mm with Aspergillus oryzae [25]. Further, the zone of inhibition at 20 µg/disc in the assay with Aspergillus fumigatus [26] worked out at 26 mm; with Aspergillus oryzae [27], 12 mm.
